Experimental findings from patent US7956194B2, “Microbiocidal (E.G. fungicidal) 1,2,3-triazole derivatives” (Syngenta Crop Protection, Inc., priority 2002, dated 2011) are described below.

The melting point is the temperature, or range, at which the solid turns liquid.

In turn, `CC(C)CC(C)c1ccccc1NC(=O)c1nn(C)nc1C(F)(F)F` (centres unmarked) [Compound 2.219, 2-methyl-5-trifluoromethyl-2H-1,2,3-triazole-4-carboxylic acid [2-(1,3-dimethyl-butyl)-phenyl]-amide] yielded a melting point of 94.6 to 95.4 °C.
The same measure for `Cn1nc(C(=O)Nc2cc(Cl)ccc2-c2ccccc2)c(C(F)F)n1` [Compound 3.017, 5-difluoromethyl-2-methyl-2H-1,2,3-triazole-4-carboxylic acid (4-chloro-biphenyl-2-yl)-amide]: 155 to 156 °C.
